According to patent publication US12208092B2, “Compositions and methods for administering paltusotine to patients with hepatic impairment” (CRINETICS PHARMACEUTICALS, INC., priority 2023, dated 2025):

Test: Phase 1 hepatic impairment study, safety (TEAEs) after single oral 20 mg tablet
[1] = mild hepatic impairment (N = 8)
[2] = moderate hepatic impairment (N = 8)
[3] = normal hepatic function (N = 14)

Protocol: The secondary objective of the study was to assess the safety and tolerability of a single dose of paltusotine in subjects with varying degrees of hepatic impairment.
Safety and tolerability were assessed by the following endpoints: reported adverse events (AEs), clinical laboratory test results (hematology, coagulation, serum chemistry, and urinalysis), vital sign measurements, and 12-lead electrocardiogram results
All 36 subjects who were enrolled in the study received all planned single doses of paltusotine 20 mg (1×20 mg tablet) and were included in the safety and PK analysis populations.

In the case of `N#Cc1cccc(-c2ccc3ncc(-c4cc(F)cc(F)c4)c(N4CCC(N)CC4)c3c2)c1O` [paltusotine, 3-[4-(4-amino-1-piperidyl)-3-(3,5-difluorophenyl)-6-quinolyl]-2-hydroxybenzonitrile], the “discontinuation due to a TEAE” value (all 36 subjects) is reported as “No subjects discontinued”, the safety and tolerability (hepatic impairment and normal subjects) is reported as “safe and generally well tolerated” and the “Any SAEs, number of occurrences” value [1] is reported as 1. The “Any TEAE, number of occurrences” value [1] was 3, the “Related TEAE Abdominal discomfort, subjects n (%)” value [1] was 0 and the “Related TEAE Diarrhea, number of occurrences” value (“Related TEAE Diarrhea, number” for short) [1] was 1. The “Related TEAE Diarrhea, subjects n (%)” value [1] was 1 (12.5%), the “Related TEAE Epigastric discomfort, subjects n (%)” value [1] was 0 and the “Related TEAE Fatigue, subjects n (%)” value [1] was 0. The “Related TEAE Haematuria, number of occurrences” value [1] was 1, the “Related TEAE Haematuria, subjects n (%)” value [1] was 1 (12.5%) and the “Related TEAE Headache, subjects n (%)” value [1] was 0. For the same compound, the “Related TEAE Neutropenia, subjects n (%)” value [1] was 0, the “Related TEAE Pain, subjects n (%)” value [1] was 0 and the “Related TEAE Paraesthesia, subjects n (%)” value [1] was 0. For the same compound, the “SAEs Not related to study drug (strongest relationship), subjects n (%)” value (“SAEs Not related to study drug … (%)” below) [1] was 1 (12.5%), the “SAEs Not related to study drug, number of occurrences” value [1] was 1 and the “SAEs Related to study drug (strongest relationship), subjects” value (from here on “SAEs Related to study drug”) [1] was 0. The “Subjects reporting any SAEs, subjects n (%)” value [1] was 1 (12.5%), the “Subjects reporting any TEAE, subjects n (%)” value [1] was 2 (25.0%) and the “TEAE Abdominal discomfort, subjects n (%)” value [1] was 0. For the same compound, the “TEAE COVID-19, subjects n (%)” value [1] was 0, the “TEAE Death, number of occurrences” value [1] was 1 and the “TEAE Diarrhea, number of occurrences” value [1] was 1. For the same compound, the “TEAE Diarrhea, subjects n (%)” value [1] was 1 (12.5%), the “TEAE Epigastric discomfort, subjects n (%)” value [1] was 0 and the “TEAE Fatigue, subjects n (%)” value [1] was 0. The “TEAE Haematuria, number of occurrences” value [1] was 1, the “TEAE Haematuria, subjects n (%)” value [1] was 1 (12.5%) and the “TEAE Headache, subjects n (%)” value [1] was 0. The “TEAE Neutropenia, subjects n (%)” value [1] was 0, the “TEAE Pain, subjects n (%)” value [1] was 0 and the “TEAE Paraesthesia, subjects n (%)” value [1] was 0. The “TEAE SOC Blood and lymphatic system disorders, subjects n (%)” value [1] was 0, the “TEAE SOC Gastrointestinal disorders, number of occurrences” value [1] was 1 and the “TEAE SOC Gastrointestinal disorders, subjects n (%)” value [1] was 1 (12.5%). For the same compound, the “TEAE SOC General disorders and administration site conditions, number of occurrences” value [1] was 1, the “TEAE SOC General disorders and administration site conditions, subjects n (%)” value [1] was 1 (12.5%) and the “TEAE SOC Infections and infestations, subjects n (%)” value [1] was 0. The “TEAE SOC Nervous system disorders, subjects n (%)” value [1] was 0, the “TEAE SOC Renal and urinary disorders, number of occurrences” value [1] was 1 and the “TEAE SOC Renal and urinary disorders, subjects n (%)” value [1] was 1 (12.5%). The “TEAEs Not Related to study drug (strongest relationship), subjects n (%)” value [1] was 0, the “TEAEs Related to study drug (strongest relationship), subjects n (%)” value [1] was 2 (25.0%) and the “TEAEs Related to study drug, number of occurrences” value [1] was 2. For the same compound, the “TEAEs by maximum severity: Mild, number of occurrences” value [1] was 2, the “TEAEs by maximum severity: Mild, subjects n (%)” value [1] was 1 (12.5%) and the “TEAEs by maximum severity: Moderate, subjects n (%)” value [1] was 0. For the same compound, the “TEAEs by maximum severity: Severe, number of occurrences” value [1] was 1, the “TEAEs by maximum severity: Severe, subjects n (%)” value [1] was 1 (12.5%) and the “Total number of SAEs reported” value [1] was 1. The “Total number of TEAEs reported” value [1] was 3, the “Any TEAE, number of occurrences” value [2] was 4 and the “Related TEAE Abdominal discomfort, subjects n (%)” value [2] was 0. For the same compound, the “Related TEAE Diarrhea, number” value [2] was 1, the “Related TEAE Diarrhea, subjects n (%)” value [2] was 1 (12.5%) and the “Related TEAE Epigastric discomfort, subjects n (%)” value [2] was 0. The “Related TEAE Fatigue, number of occurrences” value [2] was 1, the “Related TEAE Fatigue, subjects n (%)” value [2] was 1 (12.5%) and the “Related TEAE Haematuria, subjects n (%)” value [2] was 0. For the same compound, the “Related TEAE Headache, number of occurrences” value [2] was 1, the “Related TEAE Headache, subjects n (%)” value [2] was 1 (12.5%) and the “Related TEAE Neutropenia, subjects n (%)” value [2] was 0. For the same compound, the “Related TEAE Pain, number of occurrences” value [2] was 1, the “Related TEAE Pain, subjects n (%)” value [2] was 1 (12.5%) and the “Related TEAE Paraesthesia, subjects n (%)” value [2] was 0. For the same compound, the “SAEs Not related to study drug … (%)” value [2] was 0, the “SAEs Related to study drug” value [2] was 0 and the “Subjects reporting any SAEs, subjects n (%)” value [2] was 0. For the same compound, the “Subjects reporting any TEAE, subjects n (%)” value [2] was 2 (25.0%), the “TEAE Abdominal discomfort, subjects n (%)” value [2] was 0 and the “TEAE COVID-19, subjects n (%)” value [2] was 0. The “TEAE Death, subjects n (%)” value [2] was 0, the “TEAE Diarrhea, number of occurrences” value [2] was 1 and the “TEAE Diarrhea, subjects n (%)” value [2] was 1 (12.5%). For the same compound, the “TEAE Epigastric discomfort, subjects n (%)” value [2] was 0, the “TEAE Fatigue, number of occurrences” value [2] was 1 and the “TEAE Fatigue, subjects n (%)” value [2] was 1 (12.5%). The “TEAE Haematuria, subjects n (%)” value [2] was 0, the “TEAE Headache, number of occurrences” value [2] was 1 and the “TEAE Headache, subjects n (%)” value [2] was 1 (12.5%). For the same compound, the “TEAE Neutropenia, subjects n (%)” value [2] was 0, the “TEAE Pain, number of occurrences” value [2] was 1 and the “TEAE Pain, subjects n (%)” value [2] was 1 (12.5%). For the same compound, the “TEAE Paraesthesia, subjects n (%)” value [2] was 0, the “TEAE SOC Blood and lymphatic system disorders, subjects n (%)” value [2] was 0 and the “TEAE SOC Gastrointestinal disorders, number of occurrences” value [2] was 1. For the same compound, the “TEAE SOC Gastrointestinal disorders, subjects n (%)” value [2] was 1 (12.5%), the “TEAE SOC General disorders and administration site conditions, number of occurrences” value [2] was 2 and the “TEAE SOC General disorders and administration site conditions, subjects n (%)” value [2] was 1 (12.5%). The “TEAE SOC Infections and infestations, subjects n (%)” value [2] was 0, the “TEAE SOC Nervous system disorders, number of occurrences” value [2] was 1 and the “TEAE SOC Nervous system disorders, subjects n (%)” value [2] was 1 (12.5%). The “TEAE SOC Renal and urinary disorders, subjects n (%)” value [2] was 0, the “TEAEs Not Related to study drug (strongest relationship), subjects n (%)” value [2] was 0 and the “TEAEs Related to study drug (strongest relationship), subjects n (%)” value [2] was 2 (25.0%). The “TEAEs Related to study drug, number of occurrences” value [2] was 4, the “TEAEs by maximum severity: Mild, number of occurrences” value [2] was 3 and the “TEAEs by maximum severity: Mild, subjects n (%)” value [2] was 1 (12.5%). The “TEAEs by maximum severity: Moderate, number of occurrences” value [2] was 1, the “TEAEs by maximum severity: Moderate, subjects n (%)” value [2] was 1 (12.5%) and the “TEAEs by maximum severity: Severe, subjects n (%)” value [2] was 0. For the same compound, the “Total number of SAEs reported” value [2] was 0, the “Total number of TEAEs reported” value [2] was 4 and the “Any TEAE, number of occurrences” value [3] was 6. The “Related TEAE Abdominal discomfort, number of occurrences” value [3] was 1, the “Related TEAE Abdominal discomfort, subjects n (%)” value [3] was 1 (7.1%) and the “Related TEAE Diarrhea, number” value [3] was 2. For the same compound, the “Related TEAE Diarrhea, subjects n (%)” value [3] was 2 (14.3%), the “Related TEAE Epigastric discomfort, number of occurrences” value [3] was 1 and the “Related TEAE Epigastric discomfort, subjects n (%)” value [3] was 1 (7.1%). For the same compound, the “Related TEAE Fatigue, subjects n (%)” value [3] was 0, the “Related TEAE Haematuria, subjects n (%)” value [3] was 0 and the “Related TEAE Headache, subjects n (%)” value [3] was 0. For the same compound, the “Related TEAE Neutropenia, subjects n (%)” value [3] was 0, the “Related TEAE Pain, subjects n (%)” value [3] was 0 and the “Related TEAE Paraesthesia, number of occurrences” value [3] was 1. For the same compound, the “Related TEAE Paraesthesia, subjects n (%)” value [3] was 1 (7.1%), the “SAEs Not related to study drug … (%)” value [3] was 0 and the “SAEs Related to study drug” value [3] was 0. For the same compound, the “Subjects reporting any SAEs, subjects n (%)” value [3] was 0, the “Subjects reporting any TEAE, subjects n (%)” value [3] was 4 (28.6%) and the “TEAE Abdominal discomfort, number of occurrences” value [3] was 1. The “TEAE Abdominal discomfort, subjects n (%)” value [3] was 1 (7.1%), the “TEAE COVID-19, subjects n (%)” value [3] was 0 and the “TEAE Death, subjects n (%)” value [3] was 0. The “TEAE Diarrhea, number of occurrences” value [3] was 3, the “TEAE Diarrhea, subjects n (%)” value [3] was 3 (21.4%) and the “TEAE Epigastric discomfort, number of occurrences” value [3] was 1. The “TEAE Epigastric discomfort, subjects n (%)” value [3] was 1 (7.1%), the “TEAE Fatigue, subjects n (%)” value [3] was 0 and the “TEAE Haematuria, subjects n (%)” value [3] was 0. The “TEAE Headache, subjects n (%)” value [3] was 0, the “TEAE Neutropenia, subjects n (%)” value [3] was 0 and the “TEAE Pain, subjects n (%)” value [3] was 0. The “TEAE Paraesthesia, number of occurrences” value [3] was 1, the “TEAE Paraesthesia, subjects n (%)” value [3] was 1 (7.1%) and the “TEAE SOC Blood and lymphatic system disorders, subjects n (%)” value [3] was 0.
